Source: publication PMC11211886 (Frontiers in Pharmacology, 2024)
Values joined by “and” are separate entries in the source; they are usually repeats but may differ in a detail not shown here. Equal entries are not always repeated.

Legend:
OAT3 = target: T1, OAT3 (Homo sapiens, UniProt Q8TCC7); assay: OAT3 inhibition, estrone 3-sulfate uptake in transfected HEK293 cells
T1 sequence (Q8TCC7 1-542): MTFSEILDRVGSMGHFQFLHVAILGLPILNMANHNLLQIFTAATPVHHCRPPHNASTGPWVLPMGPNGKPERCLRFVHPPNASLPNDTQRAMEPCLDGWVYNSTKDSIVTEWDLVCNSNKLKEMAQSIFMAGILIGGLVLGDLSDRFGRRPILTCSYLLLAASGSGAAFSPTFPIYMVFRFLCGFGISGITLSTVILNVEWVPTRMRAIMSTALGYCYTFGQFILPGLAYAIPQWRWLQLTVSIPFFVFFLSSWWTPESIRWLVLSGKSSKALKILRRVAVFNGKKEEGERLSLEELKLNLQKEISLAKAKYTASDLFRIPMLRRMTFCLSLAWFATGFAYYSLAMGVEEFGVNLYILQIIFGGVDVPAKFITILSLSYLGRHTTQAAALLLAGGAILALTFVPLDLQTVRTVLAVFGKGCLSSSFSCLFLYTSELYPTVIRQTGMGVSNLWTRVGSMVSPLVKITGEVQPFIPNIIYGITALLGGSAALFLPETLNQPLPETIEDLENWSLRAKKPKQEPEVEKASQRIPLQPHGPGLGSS
Protocol: (§1) The pre-incubation solutions were removed, and incubation solutions containing the inhibitors and probe substrates (or transport buffer containing an equal volume of vehicle control and probe substrates) were added and incubated at 37°C for 2 min (5 min for OATP1B3). The probe substrate for OAT1 was 4-aminohippuric acid (10 μM), for OAT3 was estrone 3-sulfate (10 μM), for OCT2 was metformin (100 μM), for OATP1B1 was β-estradiol 17-(β-D-glucuronide) (5 μM), for OATP1B3 was β-estradiol 17-(β-D-glucuronide) (10 μM), and for MATE1 and MATE2-K was tetraethylammonium (10 μM). After incubation, cells were washed three times with ice-cold transport buffer (25 mM HEPES, pH 7.4, pH 8.0 for overexpressing MATE1 and MATE2-K HEK293 cells) and lysed in distilled water. The concentrations of probe substrates were determined by LC-MS/MS, and a BCA Kit (Solarbio ®Life Sciences, Beijing, China) was used to determine the protein content in the cell lysate.
(§2) where C is the concentration of the drug in the cell lysate (nM), P is the protein concentration of the cell lysate (mg/mL), and T is the incubation time (minute). Uptake ratetest compound is the uptake rate of the substrate in the presence of the test compound. Uptake ratevehicle control is the uptake rate of the substrate in the presence of the vehicle control. Uptake ratepassive is the uptake rate of the substrate in the presence of the positive inhibitor at the top test concentration.

[1] = Excretion/mass balance of [14C] amdizalisib in BDI and BDC rats; format: in vivo, SD rat; details: for Cumulative recovery of radioactivity, Bile / Cumulative recovery of radioactivity, Cage washing / Cumulative recovery of radioactivity, Feces / Cumulative recovery of radioactivity, Total recovery / Cumulative recovery of radioactivity, Urine: PO 5 mg/100 μCi/kg; for unchanged drug recovered in bile / unchanged drug recovered in feces / unchanged drug recovered in urine: % of administered dose
Protocol: Rats were divided into seven groups according to the sampling time points, with six rats (male: female = 1: 1) in each group, except that Group 1 h used three male rats and Group 2 h and Group 72 h used three female rats, respectively. […] Plasma and tissue samples were collected at 0.5, 1, 6, 24, and 48 h after dosing for male rats and at 0.5, 2, 6, 24, 48, and 72 h after dosing for female rats. […] After blood collection, the rats were sacrificed, and 18 tissues, namely, brain, breast, skin, fat, testis, ovary, bladder, pancreas, skeletal muscle, heart, lung, kidney, liver, stomach, small intestine, colon, spleen, and spinal cord, were removed from the rats at designated time points. These tissues were washed with saline and dried with filter paper. Aliquots of tissues were accurately weighed and then homogenized in 50% (v/v) methanol/water (10 mL/1 g tissue). […] Twelve rats (207–277 g) were divided into the bile-duct cannulation (BDC) group and the bile-duct intact (BDI) group, with six rats (male: female = 1:1) in each group. […] Urine and feces were collected at pre-dose (0) and 24 h through 168 h post-dose (the first 24 h interval split into 0–8 and 8–24 h for urine) for BDI rats. For BDC rats, urine and feces were collected at pre-dose (0) and 72 h post-dose (the first 24 h interval split into 0–8 and 8–24 h for urine), and bile was collected at pre-dose (0), 0–4, 4–8, 8–24, 24–48, and 48–72 h post-dose. Cage-washing fluids were collected at 24 h intervals until the last sampling time point for both groups. Another BDI rat was orally administered a blank vehicle (0.5% CMC-Na, 0.5 g/100 mL), and urine and feces were collected 24 h post-dose. The weight of the collected samples was recorded. Samples were stored in a −20°C freezer until analysis.
For the determination of drug-derived radioactivity in the excretion study in SD rats, urine (0.1 g), bile (0.025 g), and cage wash samples (1 g) were mixed well with scintillation solution (5 mL for urine and cage wash samples; 10 mL for bile samples) and directly analyzed by a liquid scintillation counter (LSC, Perkin Elmer, Waltham, MA, United States). An appropriate amount of isopropanol: water (1:1, v/v) was added to the feces samples and thoroughly homogenized. Pooled fecal homogenate (0.3 g) was combusted in a Sample Oxidizer 501 (RJ Harvey Instrument, Tappan, NY, USA), and the generated ^14CO2 was trapped in a 15 mL scintillation solution and further analyzed for radioactivity by LSC using a Tri-Carb 3110 TR counter (Perkin Elmer, Waltham, MA, United States). The radioactive concentrations of urine, bile, feces, and cage washings were calculated with the counted disintegration per minute (DPM). The percentage of administered dose recovered (% dose recovered) was calculated using the following equation: % dose recovered=Total radioactivity DPM in sample/ radioactivity DPM in dosing formulation×100.

MATE2-K = MATE2-K (Homo sapiens, UniProt Q86VL8); assay: MATE2-K inhibition, tetraethylammonium uptake in transfected HEK293 cells
Protocol: as §1, §2

MATE1 = target: T2, MATE1 (Homo sapiens, UniProt Q96FL8); assay: MATE1 inhibition, tetraethylammonium uptake in transfected HEK293 cells
T2 sequence (Q96FL8 1-570): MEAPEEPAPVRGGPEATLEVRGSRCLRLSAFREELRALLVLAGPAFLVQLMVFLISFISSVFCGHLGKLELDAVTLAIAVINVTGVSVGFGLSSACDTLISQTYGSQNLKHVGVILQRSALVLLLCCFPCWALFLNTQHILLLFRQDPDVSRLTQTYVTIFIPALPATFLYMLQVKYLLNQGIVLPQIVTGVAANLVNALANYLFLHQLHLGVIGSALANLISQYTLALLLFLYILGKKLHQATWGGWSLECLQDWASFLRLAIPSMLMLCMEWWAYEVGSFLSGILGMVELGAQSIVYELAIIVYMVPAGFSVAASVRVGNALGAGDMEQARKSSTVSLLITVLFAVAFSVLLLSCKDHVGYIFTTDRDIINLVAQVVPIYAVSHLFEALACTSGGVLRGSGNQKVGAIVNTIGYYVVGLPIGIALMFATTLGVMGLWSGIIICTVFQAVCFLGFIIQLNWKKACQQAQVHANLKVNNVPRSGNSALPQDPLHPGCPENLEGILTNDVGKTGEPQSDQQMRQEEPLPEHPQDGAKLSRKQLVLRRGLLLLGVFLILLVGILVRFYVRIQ
Protocol: as §1, §2

[2] = BDC rat, 0–72 h, female (n = 3)
[3] = BDC rat, 0–72 h, male and female (n = 6)
[4] = BDI rat, 0–168 h, female (n = 3)
[5] = BDI rat, 0–168 h, male and female (n = 6)

Chain of MATE2-K (Q86VL8 1-566 isoform Q86VL8-3): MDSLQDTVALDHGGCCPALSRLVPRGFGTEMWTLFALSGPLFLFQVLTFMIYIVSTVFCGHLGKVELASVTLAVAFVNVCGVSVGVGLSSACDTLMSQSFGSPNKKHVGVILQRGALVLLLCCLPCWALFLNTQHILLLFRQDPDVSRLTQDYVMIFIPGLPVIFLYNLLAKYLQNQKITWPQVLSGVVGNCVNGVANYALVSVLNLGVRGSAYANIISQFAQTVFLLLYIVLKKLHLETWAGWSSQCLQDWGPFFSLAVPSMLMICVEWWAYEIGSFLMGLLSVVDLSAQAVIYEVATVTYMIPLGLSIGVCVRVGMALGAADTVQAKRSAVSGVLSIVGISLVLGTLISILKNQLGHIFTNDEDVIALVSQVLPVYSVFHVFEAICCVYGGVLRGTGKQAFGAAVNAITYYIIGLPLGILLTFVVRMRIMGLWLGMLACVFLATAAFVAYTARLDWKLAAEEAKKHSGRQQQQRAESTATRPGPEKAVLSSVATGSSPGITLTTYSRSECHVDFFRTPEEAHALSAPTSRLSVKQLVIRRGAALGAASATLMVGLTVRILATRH

CCCN(CCC)S(=O)(=O)c1ccc(C(=O)O)cc1 [Probenecid, reference compound]
Percentage transported (OAT3; OAT3, compound 100 μM): 0.00% | Uptake rate (OAT3; OAT3, compound 100 μM): 19.5±2.26 pmol/mg protein/min | inhibition at 2 min, 100 µM (OAT3; human, pH 7.4): 100%

[^14C] amdizalisib
Cumulative recovery of radioactivity, Bile [1, 2]: 49.81 ± 2.07% | Cumulative recovery of radioactivity, Cage washing [1, 2]: 2.24 ± 1.90% | Cumulative recovery of radioactivity, Feces [1, 2]: 19.81 ± 4.98% | Cumulative recovery of radioactivity, Total recovery [1, 2]: 90.31 ± 0.91% | Cumulative recovery of radioactivity, Urine [1, 2]: 18.45 ± 4.01% | Cumulative recovery of radioactivity, Bile ([1]; BDC rat, 0–72 h, male (n = 3)): 58.17 ± 4.68% | Cumulative recovery of radioactivity, Cage washing ([1]; BDC rat, 0–72 h, male (n = 3)): 0.89 ± 0.37% | Cumulative recovery of radioactivity, Feces ([1]; BDC rat, 0–72 h, male (n = 3)): 8.98 ± 2.64% | Cumulative recovery of radioactivity, Total recovery ([1]; BDC rat, 0–72 h, male (n = 3)): 91.99 ± 1.88% | Cumulative recovery of radioactivity, Urine ([1]; BDC rat, 0–72 h, male (n = 3)): 23.96 ± 8.70% | Cumulative recovery of radioactivity, Bile [1, 3]: 53.99 ± 5.61% | Cumulative recovery of radioactivity, Cage washing [1, 3]: 1.57 ± 1.43% | Cumulative recovery of radioactivity, Feces [1, 3]: 14.40 ± 6.92% | Cumulative recovery of radioactivity, Total recovery [1, 3]: 91.15% and 91.15 ± 1.61% | Cumulative recovery of radioactivity, Urine [1, 3]: 21.20 ± 6.77% | fraction of the oral dose absorbed (bile + urine radioactivity) ([1]; BDC rats, 0–72 h, PO 5 mg/kg): at least 75.19% | Cumulative recovery of radioactivity, Cage washing [1, 4]: 4.72 ± 2.41% | Cumulative recovery of radioactivity, Feces [1, 4]: 71.15 ± 0.22% | Cumulative recovery of radioactivity, Total recovery [1, 4]: 91.59 ± 0.97% | Cumulative recovery of radioactivity, Urine [1, 4]: 15.72 ± 2.62% | Cumulative recovery of radioactivity, Cage washing ([1]; BDI rat, 0–168 h, male (n = 3)): 2.84 ± 0.17% | Cumulative recovery of radioactivity, Feces ([1]; BDI rat, 0–168 h, male (n = 3)): 63.14 ± 3.98% | Cumulative recovery of radioactivity, Total recovery ([1]; BDI rat, 0–168 h, male (n = 3)): 90.69 ± 1.16% | Cumulative recovery of radioactivity, Urine ([1]; BDI rat, 0–168 h, male (n = 3)): 24.71 ± 4.46% | Cumulative recovery of radioactivity, Cage washing [1, 5]: 3.78 ± 1.84% | Cumulative recovery of radioactivity, Feces [1, 5]: 67.15 ± 5.06% | Cumulative recovery of radioactivity, Total recovery [1, 5]: 91.14% and 91.14 ± 1.07% | Cumulative recovery of radioactivity, Urine [1, 5]: 20.21 ± 5.91% | total radioactivity recovered ([1]; BDI rats, within 48 h post-dose): over 80% | unchanged drug recovered in bile ([1]; female rats): 4.70% | unchanged drug recovered in feces ([1]; female rats): 29.80% | unchanged drug recovered in urine ([1]; female rats): 0.03% | unchanged drug recovered in bile ([1]; male rats): 2.69% | unchanged drug recovered in feces ([1]; male rats): 23.20% | unchanged drug recovered in urine ([1]; male rats): < 0.01%

CCc1nc(N)nc(N)c1-c1ccc(Cl)cc1 [Pyrimethamine, reference compound]
IC50 (MATE2-K): 0.0136 µM | Percentage transported (MATE2-K; MATE2-K, compound 1 μM): 0.00% | Uptake rate (MATE2-K; MATE2-K, compound 1 μM): 7.55±1.58 pmol/mg protein/min | inhibition at 2 min, 1 µM (MATE2-K; human, pH 8): 100% | IC50 (MATE1): 0.0125 µM | Percentage transported (MATE1; MATE1, compound 1 μM): 0.00% | Uptake rate (MATE1; MATE1, compound 1 μM): 12.5±2.43 pmol/mg protein/min | inhibition at 2 min, 1 µM (MATE1; human, pH 8): 100%
